Experimental data taken from patent US9718790B2, “Triazine derivative and pharmaceutical composition having an analgesic activity comprising the same” (SHIONOGI & CO., LTD., priority 2010, dated 2017).
pIC50: −log10 of the molar value.

biological target: human P2X3 receptor (Homo sapiens (Human), UniProt P56373); experiment: Evaluation of human P2X3 receptor inhibitory activity (Fluo-3 calcium fluorescence, FDSS 3000, ATP stimulation); type: cell-based; settings: C6BU-1 cells stably expressing human P2X3 receptor;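 note: stimulus was 50 nM ATP with fluorescence followed for 3 min, and the response per well was peak post-ATP fluorescence divided by the reading at measurement start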
Sequence (P56373 whole entry): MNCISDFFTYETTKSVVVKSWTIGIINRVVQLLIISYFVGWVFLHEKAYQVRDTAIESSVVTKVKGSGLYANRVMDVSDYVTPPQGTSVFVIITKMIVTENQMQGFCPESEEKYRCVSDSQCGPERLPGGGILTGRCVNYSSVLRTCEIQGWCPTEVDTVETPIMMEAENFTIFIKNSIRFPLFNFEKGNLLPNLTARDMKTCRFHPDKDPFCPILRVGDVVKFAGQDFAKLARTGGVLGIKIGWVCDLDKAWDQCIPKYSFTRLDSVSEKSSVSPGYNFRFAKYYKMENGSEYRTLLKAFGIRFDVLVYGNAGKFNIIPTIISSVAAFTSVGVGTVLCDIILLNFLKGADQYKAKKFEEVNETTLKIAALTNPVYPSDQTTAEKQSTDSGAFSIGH

Row | Structure (SMILES) | pIC50
1 | CC(C)Oc1ccc(/N=c2\[nH]c(=O)n(CCC(=O)NN)c(=O)n2Cc2ccc(Cl)cc2)cc1F [Compound I-0644, 1-(4-chlorobenzyl)-6-(3-fluoro-4-isopropoxyphenylimino)-3-(2-hydrazinecarbonylethyl)-1,3,5-triazinane-2,4-dion] | 7.40
2 | CC(C)Oc1ccc(/N=c2\[nH]c(=O)n(C[C@@H](O)CO)c(=O)n2Cc2ccc(Cl)cc2)cc1Cl [Compound I-0616] | 8.00
3 | CCOC(=O)Cc1c(C)oc2ccc(/N=c3\[nH]c(=O)n(CC)c(=O)n3Cc3ccc(Cl)cc3)cc12 [Compound I-2149] | 6.10
4 | COC(=O)[C@H](C)[C@H](C)n1c(=O)[nH]/c(=N\c2ccc(OC3CCC3)cc2)n(Cc2ccc(Cl)cc2)c1=O [Compound I-1378] | 7.92
5 | Cc1ccc(Cn2c(=O)n(C[C@H](C)C(=O)O)c(=O)[nH]/c2=N\c2cnc(OC3CCCC3)c(Cl)c2)cc1 [Compound I-1477] | 7.17
6 | CNC(=O)c1cc(Oc2ccc(/N=c3\[nH]c(=O)n(C)c(=O)n3Cc3ccc(C)cc3)cc2)ccn1 [Compound I-2012] | 8.05
7 | CC(C)Oc1ccc(/N=c2\[nH]c(=O)n(Cc3n[nH]c(=O)o3)c(=O)n2Cc2ccc(Cl)cc2)cc1F [Compound I-0643] | 7.27
8 | CCOC(=O)CCn1c(=O)[nH]/c(=N\c2ccc(OC3CCC3)c(C)c2)n(Cc2ccc(C)cc2)c1=O [Compound I-1400] | 7.89
9 | CCn1c(=O)[nH]/c(=N\c2ccc(Oc3cncc(C#N)c3)cc2)n(CC2CCC3(CC2)CC3)c1=O [Compound I-2179] | 8.52
10 | CCOC(=O)c1cc(Oc2ccc(/N=c3\[nH]c(=O)n(CC)c(=O)n3Cc3ccc(Cl)cc3)cc2)[nH]n1 [Compound I-2192] | 8.10
11 | COc1cc(/N=c2\[nH]c(=O)n(C[C@H](O)CO)c(=O)n2Cc2ccc(Cl)cc2)ccc1OC(C)C [Compound I-2004] | 7.89
12 | CCOC(=O)CCn1c(=O)[nH]/c(=N\c2ccc(OC(C)C)c(COC)c2)n(Cc2ccc(C)cc2)c1=O [Compound I-1421] | 6.05
13 | Cc1ccc(Cn2c(=O)n(C[C@H](C)C(=O)O)c(=O)[nH]/c2=N\c2ccc(Oc3cccnc3C)cc2)cc1 [Compound I-1231] | 7.44
14 | Cc1ccc(Cn2c(=O)n([C@@H](C)[C@@H](C)C(=O)O)c(=O)[nH]/c2=N\c2ccc(N3CCCCC3)cc2)cc1 [Compound I-1394] | 7.36

same assay, conditions: C6BU-1 cells stably expressing human P2X3 receptor, Fluo-3 fluorescence, FDSS 3000

Row | Structure (SMILES) | pIC50
15 | COC(=O)CCn1c(=O)[nH]/c(=N\C2CCC(C)CC2)n(Cc2ccc(C)cc2)c1=O (stereo not shown) [Compound I-1759] | 6.39
16 | COC(=O)[C@@H](C)Cn1c(=O)[nH]/c(=N\c2ccc(C3=CCCCC3)cc2)n(Cc2ccc(C)cc2)c1=O [Compound I-1078] | 6.66
17 | O=C(O)CCn1c(=O)[nH]/c(=N\c2ccc(OCc3ccccn3)cc2)n(Cc2ccc(Cl)cc2)c1=O [Compound I-1628] | 6.17
18 | C[C@@H](Oc1ccc(/N=c2\[nH]c(=O)n(CCCO)c(=O)n2Cc2ccc(Cl)cc2)cc1)C(F)(F)F [Compound I-1620] | 7.85
19 | COC(=O)CCn1c(=O)[nH]/c(=N\Nc2ccc(OC)cc2)n(Cc2ccc(C)cc2)c1=O [Compound I-1801] | 6.16
20 | C[C@@H](C(=O)O)[C@H](C)n1c(=O)[nH]/c(=N\c2ccc3c(c2)CCC3=O)n(Cc2ccc(Cl)cc2)c1=O [Compound I-1830] | 6.06
21 | C=C(C)c1ccc(Cn2c(=O)n(C[C@H](C)C(=O)OC)c(=O)[nH]/c2=N\c2ccc(OC(C)C)c(C)c2)cc1 [Compound I-0995] | 6.56
22 | Cc1ccc(Cn2c(=O)n(C[C@H](C)C(=O)O)c(=O)[nH]/c2=N\c2ccc(CC3CCCC3)cc2)cc1 [Compound I-1100] | 7.37
23 | Cc1ccc(Cn2c(=O)n(CCC(=O)O)c(=O)[nH]/c2=N\c2ncc(-c3ccccc3)s2)cc1 [Compound I-1725] | 6.02
24 | O=C(NCCO)c1cc(Oc2ccc(/N=c3\[nH]c(=O)[nH]c(=O)n3Cc3ccc(Cl)cc3)cc2)ccn1 [Compound I-1897] | 7.62
25 | Cc1ccc(Cn2c(=O)n(C[C@H](C)C(=O)O)c(=O)[nH]/c2=N\c2ccc(OC3CCOCC3)cc2)cc1 [Compound I-1074] | 7.07
26 | Cc1nc2ccc(/N=c3\[nH]c(=O)n(CC(N)=O)c(=O)n3Cc3ccc(Cl)cc3)cc2s1 [Compound I-1659] | 8.22
27 | COC(=O)[C@@H](C)Cn1c(=O)[nH]/c(=N\c2ccc(OC(C)C)c(OC)c2)n(Cc2ccc(C)cc2)c1=O [Compound I-1129] | 7.96
28 | Cc1ccc(Cn2c(=O)n(C[C@H](C)C(=O)O)c(=O)[nH]/c2=N\c2ccc(Oc3ccccc3)cc2)cc1 [Compound I-0992] | 7.62
29 | CCn1c(C)nc2cc(/N=c3\[nH]c(=O)n([C@@H](C)[C@@H](C)C(=O)O)c(=O)n3Cc3ccc(Cl)cc3)ccc21 [Compound I-1583] | 6.48
30 | CCCOc1ccc(/N=c2\[nH]c(=O)n(C[C@@H](C)C(=O)OC)c(=O)n2Cc2ccc(Cl)cc2)cc1 [Compound I-1034] | 8.30
31 | COC(=O)[C@@H](C)Cn1c(=O)[nH]/c(=N\c2ccc(C3CCCC3)cc2)n(Cc2ccc(C)cc2)c1=O [Compound I-1090] | 6.87

same assay, conditions: human P2X3 receptor, Test Example 1

Row | Structure (SMILES) | pIC50
32 | CCn1c(=O)[nH]/c(=N\c2ccc(Oc3nccc(C(N)=O)n3)cc2)n(Cc2ccc(Cl)cc2)c1=O [Compound I-2311] | 8.10
33 | Cn1c(=O)[nH]/c(=N\c2ccc(Oc3ccc(C(N)=O)cn3)cc2)n(Cc2ccc(Cl)cc2)c1=O [Compound I-2407] | 8.05
34 | Cc1ccc(Cn2c(=O)n(CCC(N)=O)c(=O)[nH]/c2=N\c2ccc(Oc3ncccn3)cc2)cc1 [Compound I-2566] | 7.77
35 | CCn1c(=O)[nH]/c(=N\c2ccc(Oc3ncc(C(=O)O)s3)cc2)n(C[C@H]2CC[C@H](C)CC2)c1=O [Compound I-2347] | 8.30
36 | CCc1nc2ccc(/N=c3\[nH]c(=O)n(CCC(=O)O)c(=O)n3Cc3ccc(C)cc3)cc2s1 [Compound I-1510] | 7.89
37 | O=c1[nH]/c(=N\c2ccc(Oc3ncccn3)cc2)n(Cc2ccc(Cl)cc2)c(=O)n1CCCO [Compound I-2543] | 8.00
38 | CCn1c(=O)[nH]/c(=N\c2ccc(Oc3cncc(C)n3)cc2)n(Cc2ccc(Cl)cc2)c1=O [Compound I-2638] | 7.82
39 | Cc1ccc2cc(/N=c3\[nH]c(=O)n(C[C@H](C)C(=O)O)c(=O)n3Cc3ccc(Cl)cc3)ccc2n1 [Compound I-0864] | 7.46
40 | N#Cc1ccc(Oc2ccc(/N=c3\[nH]c(=O)n(CCO)c(=O)n3Cc3ccc(Cl)cc3)cc2)cc1 [Compound I-2545] | 8.15
41 | COC(=O)CCn1c(=O)[nH]/c(=N\c2ccc(Oc3cccc(F)n3)cc2)n(Cc2ccc(Cl)cc2)c1=O [Compound I-2650] | 8.52
42 | CCn1c(=O)[nH]/c(=N\c2ccc(Oc3cccc(C#N)n3)cc2)n(C[C@H]2CC[C@H](C)CC2)c1=O [Compound I-2494] | 9.00
43 | CCn1c(=O)[nH]/c(=N\c2ccc(Oc3ccc(C(N)=O)c(F)c3)cc2)n(Cc2ccc(Cl)cc2)c1=O [Compound I-2234] | 8.70
44 | Cn1c(=O)[nH]/c(=N\c2ccc(Oc3ccc(C(N)=O)nn3)cc2)n(Cc2ccc(Cl)cc2)c1=O [Compound I-2379] | 8.05
45 | Cn1c(=O)[nH]/c(=N\c2ccc(Oc3nc(C(N)=O)cs3)cc2)n(Cc2ccc(Cl)cc2)c1=O [Compound I-2415] | 8.05
46 | Cn1c(=O)[nH]/c(=N\c2ccc(Oc3ncc(C(N)=O)s3)cc2)n(Cc2ccc(Cl)cc2)c1=O [Compound I-2414] | 8.52
